Experimental data from PubChem BioAssay (NCI).
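In this assay, cells in 96-well plates receive the compound at five concentrations for 48 hours. Endpoints are linearly interpolated between the surrounding concentrations. GI50 = concentration required for 50% inhibition of growth. TGI denotes the concentration required for complete inhibition of growth.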

How the values were obtained:
Assay in all cases: NCI-60 cell line screen, 48 h
786-0 renal = system: 786-0 renal
EKVX NSCLC = system: EKVX NSCLC
HCC-2998 colon = system: HCC-2998 colon
NCI-H23 lung = system: NCI-H23 lung
OVCAR-4 ovarian = system: OVCAR-4 ovarian
OVCAR-8 ovarian = system: OVCAR-8 ovarian
RPMI-8226 leukemia = system: RPMI-8226 leukemia
SW-620 colon = system: SW-620 colon
DU-145 prostate = system: DU-145 prostate
NCI-H226 lung = system: NCI-H226 lung

Row | SMILES | TGI (786-0 renal) | TGI (EKVX NSCLC) | TGI (HCC-2998 colon) | TGI (NCI-H23 lung) | TGI (OVCAR-4 ovarian) | TGI (OVCAR-8 ovarian) | TGI (RPMI-8226 leukemia) | TGI (SW-620 colon) | GI50 (786-0 renal) | GI50 (DU-145 prostate) | TGI (DU-145 prostate) | GI50 (HCC-2998 colon) | GI50 (NCI-H226 lung) | TGI (NCI-H226 lung) | GI50 (NCI-H23 lung) | GI50 (OVCAR-4 ovarian) | GI50 (OVCAR-8 ovarian) | GI50 (RPMI-8226 leukemia) | GI50 (SW-620 colon) | GI50 (EKVX NSCLC)
1 | COC(=O)CCC(=O)NC1C2CC3CC(C2)CC1C3 (configuration not stated) | > 100 µM | > 100 µM | > 100 µM | > 100 µM | > 100 µM | > 100 µM | > 100 µM | > 100 µM | – | – | – | – | – | – | – | – | – | – | – | –
2 | COc1ccc(-c2nn(-c3cccc(NC(=O)c4ccc(N5CCOCC5)c(C(F)(F)F)c4)c3)cc2-c2ccncc2)cc1Cl | 27.6 µM | – | > 50 µM | > 50 µM | > 50 µM | > 50 µM | > 50 µM | > 50 µM | 1.51 µM | > 50 µM | > 50 µM | 14.1 µM | 21.3 µM | > 50 µM | 29.9 µM | 36.2 µM | 4.47 µM | 2.06 µM | 21.3 µM | –
3 | Cc1cccc2nc3cccc(C(=O)NCCN(C)C)c3nc12 | 14.6 µM | 2.03 µM | 2.27 µM | 3.47 µM | 4.84 µM | 15.8 µM | – | 11.2 µM | – | – | – | – | – | 4.17 µM | – | – | – | – | – | –
4 | Cc1ccccc1-n1c(C)nc(-c2ccccc2)cc1=O | > 100 µM | > 100 µM | > 100 µM | > 100 µM | > 100 µM | > 100 µM | – | > 100 µM | – | – | – | – | – | > 100 µM | – | – | – | – | – | –
5 | c1ccc(CNc2nc(Nc3ccccc3)nc3ccccc23)cc1 | 3.12 µM | – | 4.43 µM | 9.25 µM | 8.04 µM | 5.09 µM | 4.42 µM | – | 1.66 µM | 3.06 µM | 10.7 µM | 1.99 µM | 2.26 µM | 11.6 µM | 2.17 µM | 2.05 µM | 1.99 µM | 1.41 µM | – | –
6 | O=C1C=CC(CC(=O)c2ccc3ccccc3c2)O1 (configuration not stated) | 39.1 µM | > 100 µM | 31.1 µM | 46.7 µM | 63.7 µM | 32.8 µM | – | 49.5 µM | – | – | – | – | – | – | – | – | – | – | – | –
7 | C[C@H]1C(=O)CC[C@]2(C)CCC(C(C)(C)O)CC12O (some centres not stated) | > 100 µM | > 100 µM | > 100 µM | > 100 µM | > 100 µM | > 100 µM | > 100 µM | > 100 µM | – | – | – | – | – | > 100 µM | – | – | – | – | – | –
8 | CN(/N=N/c1nc(OCc2ccccc2)c2[nH]cnc2n1)C(=O)Oc1ccc([N+](=O)[O-])cc1 | 23.7 µM | 35.9 µM | – | 16.4 µM | > 50 µM | 26.3 µM | > 50 µM | 26.1 µM | 8.76 µM | 9.02 µM | 19.5 µM | – | – | – | 8.44 µM | 22.8 µM | 9.81 µM | 9.12 µM | 9.02 µM | 11.5 µM
9 | C=CS(=O)(=O)CCN1CC1 | > 10 µM | – | > 10 µM | > 10 µM | > 10 µM | > 10 µM | > 10 µM | > 10 µM | – | – | > 10 µM | – | – | – | – | – | – | – | – | –
10 | O=S(=O)(C/C(=N\O)c1ccccc1)c1ccccc1 | > 100 µM | > 100 µM | > 100 µM | > 100 µM | > 100 µM | > 100 µM | > 100 µM | > 100 µM | – | – | – | – | – | > 100 µM | – | – | – | – | – | –
